Results reported in PMC7673538 (PLoS Biology, 2020).
“And” between values parts separate entries of the source, which are not always exact repeats. Equal entries are not always repeated. Where two headings read alike, the source gives them in different places.

How the values were obtained:
[1] = test system: EV-A71; experiment: microbe, parasite or virus in culture; type: cell-based, enterovirus A71; details: Enterovirus A
[2] = test system: CV-B3 (strain Nancy); type: cell-based, coxsackievirus B3
[3] = test system: EV-A71 (strain BrCr); type: cell-based, enterovirus A71
[4] = test system: CV-A24; experiment: microbe, parasite or virus in culture; type: cell-based, coxsackievirus A24
[5] = molecular target: T1, human DAT (Homo sapiens, UniProt Q01959); type: cell-based; details: for DAT, Mean (Figure 8B): Control = 100; for DAT, Mean as % (Figure 8B): Control = 100%
T1 construct: expressed in transfected cells; host or cells: HEK293 (gift of Dr. Hoener, F. Hoffmann-La Roche)

[6] = molecular target: T2, human SERT (Homo sapiens, UniProt P31645); type: cell-based; details: for SERT, Mean (Figure 8B): Control = 100.00; for SERT, Mean as % (Figure 8B): Control = 100%
T2 construct: expressed in transfected cells; host or cells: HEK293 (gift of Dr. Hoener, F. Hoffmann-La Roche)

[7] = test system: HeLa R19 cells
[8] = test system: HRV-A2; type: cell-based, human rhinovirus
[9] = in vitro; details: monkey
[10] = in vitro; details: human
[11] = test system: EV-D68; experiment: microbe, parasite or virus in culture; type: cell-based, enterovirus D68; details: for EC50: Enterovirus D

T1 sequence (Q01959 whole entry): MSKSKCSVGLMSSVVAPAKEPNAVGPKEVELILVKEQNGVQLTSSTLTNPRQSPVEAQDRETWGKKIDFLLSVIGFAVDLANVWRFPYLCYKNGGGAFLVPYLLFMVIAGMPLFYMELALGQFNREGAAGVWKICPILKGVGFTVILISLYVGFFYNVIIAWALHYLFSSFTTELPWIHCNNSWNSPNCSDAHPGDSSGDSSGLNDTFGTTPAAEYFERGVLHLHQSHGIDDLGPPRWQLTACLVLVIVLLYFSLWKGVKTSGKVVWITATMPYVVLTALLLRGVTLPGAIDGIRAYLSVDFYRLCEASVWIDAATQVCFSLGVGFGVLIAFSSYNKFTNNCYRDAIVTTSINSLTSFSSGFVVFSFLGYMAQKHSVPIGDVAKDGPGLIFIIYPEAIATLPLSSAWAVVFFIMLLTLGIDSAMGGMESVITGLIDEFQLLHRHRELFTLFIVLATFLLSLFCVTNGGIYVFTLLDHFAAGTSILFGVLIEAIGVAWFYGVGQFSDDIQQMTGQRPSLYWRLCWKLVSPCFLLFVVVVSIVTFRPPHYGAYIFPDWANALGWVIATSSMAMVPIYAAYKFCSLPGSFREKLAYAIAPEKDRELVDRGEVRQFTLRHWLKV
T2 sequence (P31645 whole entry): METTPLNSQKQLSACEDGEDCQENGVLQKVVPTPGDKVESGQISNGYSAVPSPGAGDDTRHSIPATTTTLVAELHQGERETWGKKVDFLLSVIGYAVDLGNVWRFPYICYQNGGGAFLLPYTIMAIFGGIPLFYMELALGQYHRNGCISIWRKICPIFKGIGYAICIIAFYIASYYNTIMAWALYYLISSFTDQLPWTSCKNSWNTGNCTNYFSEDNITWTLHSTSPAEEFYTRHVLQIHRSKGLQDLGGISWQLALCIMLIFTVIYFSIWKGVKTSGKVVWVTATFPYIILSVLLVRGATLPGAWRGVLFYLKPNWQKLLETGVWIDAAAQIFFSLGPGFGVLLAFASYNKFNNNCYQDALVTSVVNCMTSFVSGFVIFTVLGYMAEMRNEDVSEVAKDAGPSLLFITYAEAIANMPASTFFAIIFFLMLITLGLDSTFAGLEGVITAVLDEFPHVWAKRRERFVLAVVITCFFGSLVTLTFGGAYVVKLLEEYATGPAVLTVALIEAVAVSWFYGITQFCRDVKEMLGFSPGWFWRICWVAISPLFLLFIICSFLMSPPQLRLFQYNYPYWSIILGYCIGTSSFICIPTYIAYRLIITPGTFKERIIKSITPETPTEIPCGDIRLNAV

COc1ccc(N(Cc2ccc(F)cc2)C(=O)c2cc[nH]c2)cc1 [Compound 12a, N-(4-Fluorobenzyl)-N-(4-methoxyphenyl)-1H-pyrrole-3-carboxamide]
EC50 ([1]; EVA71, HeLa R19, read-out: EC50 EV-A71 strain TW/2945/98): 9.17 ± 0.41 µM
EC50 ([1]; EVA71, HeLa R19, read-out: EC50 EV-A71 strain TW/70811/08): 8.18 ± 0.61 µM
EC50 ([1]; EVA71, HeLa R19, read-out: EC50 EV-A71 strain TW/72232/04): 6.41 ± 2.09 µM
EC50 ([1]; EVA71, HeLa R19, read-out: EC50 EV-A71 strain TW/96016/08): 9.47 ± 0.04 µM
virus titer, TCID50/ml (Figure 2A) ([2]; compound concentration 0.001 µM): 316227800 TCID50/ml and 467735100 TCID50/ml
virus titer, TCID50/ml (Figure 2A) ([2]; compound concentration 0.01 µM): 467735100 TCID50/ml and 316227800 TCID50/ml
virus titer, TCID50/ml (Figure 2A) ([3]; compound concentration 1 µM): 316228 TCID50/ml
virus titer, TCID50/ml (Figure 2A) ([3]; compound concentration 3 µM): 316.228 TCID50/ml
virus titer, TCID50/ml (Figure 2A) ([3]; compound concentration 10 µM): 316.228 TCID50/ml
virus titer, TCID50/ml (Figure 2A) ([3]; compound concentration 30 µM): 316.228 TCID50/ml
virus titer, TCID50/ml (Figure 2A) ([3]; compound concentration 100 µM): 316.228 TCID50/ml
virus titer, TCID50/ml (Figure 2A) ([3]; compound concentration 150 µM): 316.228 TCID50/ml
EC50 ([4]; Enterovirus C, CVA24, HeLa R19, read-out: EC50 Average): 3.46 µM
EC50 ([4]; Enterovirus C, CVA24, HeLa R19, read-out: EC50 CV-A24): 3.51 ± 0.22 µM
EC50 ([4]; Enterovirus C, CVA24, HeLa R19, read-out: EC50 CV-A24 strain Joseph): 3.45 ± 0.42 µM
EC50 ([4]; Enterovirus C, CVA24, HeLa R19, read-out: EC50 Exp1): 3.29 µM
EC50 ([4]; Enterovirus C, CVA24, HeLa R19, read-out: EC50 Exp2): 3.73 µM
EC50 ([4]; read-out: EC50 Exp1): 3.04 µM
EC50 ([4]; read-out: EC50 Exp2): 3.87 µM
DAT, Mean (Figure 8B) ([5]; 1µM): 80.4016
DAT, Mean as % (Figure 8B) ([5]; 1µM): 80%
DAT, Mean (Figure 8B) ([5]; 100µM): 86.9569
DAT, Mean as % (Figure 8B) ([5]; 100µM): 87%
inhibition of DAT function (in words) ([5]; HEK293 cells expressing human DAT, 1 μM or 100 μM): neither 12a, 19b, 19d, nor the combined compound 12b inhibited
SERT, Mean (Figure 8B) ([6]; 1µM): 99.47
SERT, Mean as % (Figure 8B) ([6]; 1µM): 99%
SERT, Mean (Figure 8B) ([6]; 100µM): 114.09
SERT, Mean as % (Figure 8B) ([6]; 100µM): 114%
inhibition of SERT-mediated uptake (in words) ([6]; HEK293 cells expressing human SERT, 1 and 100 μM): neither 12a, 19b, 19d, nor the combined compound 12b inhibited
cytotoxicity (in words) [7]: no cytotoxicity
virus titer, TCID50/ml (Figure 2A) ([8]; compound concentration 3 µM): 354813 TCID50/ml
virus titer, TCID50/ml (Figure 2A) ([8]; compound concentration 100 µM): 737.962 TCID50/ml and 467.735 TCID50/ml and 500 TCID50/ml
CC50 ([9]; CC50): > 100 µM
CC50 ([9]; CC50 BGM Average): > 100 µM
CC50 ([9]; Exp 1 CC50 BGM): > 100 µM
CC50 ([9]; Exp 2 CC50 BGM): > 100 µM
CC50 ([10]; CC50 Average): > 30 µM
CC50 ([10]; CC50 HelaR19 Average): > 100 µM
CC50 ([10]; Exp 1 CC50): > 30 µM
CC50 ([10]; Exp 1 CC50 HelaR19): > 100 µM
CC50 ([10]; Exp2 CC50): > 30 µM
CC50 ([10]; Exp 2 CC50 HelaR19): > 100 µM
cross-resistance of 19d-resistant EV-D68 virus pools (in words) [11]: cross-resistance
Figure 7 dose-response raw data, EV-D68 (triplicate values) ([11]; Concentration 0.001 µM): 11.1333 and 12.4782 and 12.9265
Figure 7 dose-response raw data, EV-D68 (triplicate values) ([11]; Concentration 0.0137 µM): 9.388 and 8.898 and 11.4747
Figure 7 dose-response raw data, EV-D68 (triplicate values) ([11]; Concentration 0.0412 µM): 11.1333 and 12.4782 and 12.9265
Figure 7 dose-response raw data, EV-D68 (triplicate values) ([11]; Concentration 0.1235 µM): 10.386 and 11.4321 and 12.9265
Figure 7 dose-response raw data, EV-D68 (triplicate values) ([11]; Concentration 0.3704 µM): 8.529 and 8.161 and 15.8928
Figure 7 dose-response raw data, EV-D68 (triplicate values) ([11]; Concentration 1.1111 µM): 91.9917 and 94.6194 and 110.886
Figure 7 dose-response raw data, EV-D68 (triplicate values) ([11]; Concentration 3.3333 µM): 101.502 and 102.252 and 110.761
Figure 7 dose-response raw data, EV-D68 (triplicate values) ([11]; Concentration 10 µM): 100.876 and 104.38 and 113.014
EC50 ([11]; EVD68, HeLa R19, […], read-out: EC50 Exp1): 3.04 µM
EC50 ([11]; EVD68, HeLa R19, read-out: EC50 Average): 1.25 µM
EC50 ([11]; EVD68, HeLa R19, read-out: EC50 EV-D68): 1.08 ± 0.2 µM
EC50 ([11]; EVD68, HeLa R19, read-out: EC50 EV-D68 strain 4310900947): 1.84 ± 0.4 µM
EC50 ([11]; EVD68, HeLa R19, read-out: EC50 EV-D68 strain 4310901348): 2.72 ± 0.96 µM
EC50 ([11]; EVD68, HeLa R19, read-out: EC50 EV-D68 strain 4310902042): 1.44 ± 0.23 µM
EC50 ([11]; EVD68, HeLa R19, read-out: EC50 EV-D68 strain 4310902284): 2.31 ± 0.82 µM
EC50 ([11]; EVD68, HeLa R19, read-out: EC50 EV-D68 strain 4311000742): 1.86 ± 0.16 µM
EC50 ([11]; EVD68, HeLa R19, read-out: EC50 EV-D68 strain Fermon): 1.23 ± 0.16 µM
EC50 ([11]; EVD68 / genotype 2c, HeLa R19, read-out: EC50 EV-D68 WT): 1.25 ± 0.09 µM
